{
  "source": "patent US10391166B2",
  "about": "“Short oligonucleotides as vaccine adjuvants and therapeutic agents” (priority 2013, dated 2019)",
  "key": {"[1]": {"tested_on": "M. tuberculosis", "set-up": "species or system C57Bl/6 mice", "conditions": "mouse, in vivo"}, "[2]": {"conditions": "human liver S9 fractions", "protocol": "SB 44 (10 μM) was incubated with a mix containing S9 fraction (pooled from human) (1 mg/ml), NADPH (1.3 mM) UDPGA (5 mM), Alamethicin (10 μg/ml) in 1 ml of 1×PBS buffer. S-(5′-adenosyl)-L-methionine iodide (0.1 mM), adenosine 3′-phosphate 5′-phosphosulfate lithium salt hydrate (0.1 mM) and acetyl CoA (1 mM). The metabolite samples were evaluated by HPLC and LC/MS analysis."}, "[3]": {"test": "Dose range-finding oral study in cynomolgus monkeys", "type": "in vivo", "conditions": "500 mg/kg/day oral for 4 days", "protocol": "The objective of this study was to determine a maximum tolerated dose (MTD) and a no observable adverse effect level (NOAEL) for the endpoints examined following daily oral gavage of SB 44 for 4 consecutive days to cynomolgus monkeys. Information from this study was used to design subsequent dose-ranging toxicity studies and determine the suitability of the proposed human dose.\nSB 44 was administered orally to cynomolgus monkeys consecutively for 4 days at 500 mg/kg/day."}, "[4]": {"biological_target": "T1, RIG-I (Homo sapiens, UniProt O95786)", "T1 construct": "expressed in transfected cells; host or cells: HEK 293", "T1 sequence (O95786 1-925)": "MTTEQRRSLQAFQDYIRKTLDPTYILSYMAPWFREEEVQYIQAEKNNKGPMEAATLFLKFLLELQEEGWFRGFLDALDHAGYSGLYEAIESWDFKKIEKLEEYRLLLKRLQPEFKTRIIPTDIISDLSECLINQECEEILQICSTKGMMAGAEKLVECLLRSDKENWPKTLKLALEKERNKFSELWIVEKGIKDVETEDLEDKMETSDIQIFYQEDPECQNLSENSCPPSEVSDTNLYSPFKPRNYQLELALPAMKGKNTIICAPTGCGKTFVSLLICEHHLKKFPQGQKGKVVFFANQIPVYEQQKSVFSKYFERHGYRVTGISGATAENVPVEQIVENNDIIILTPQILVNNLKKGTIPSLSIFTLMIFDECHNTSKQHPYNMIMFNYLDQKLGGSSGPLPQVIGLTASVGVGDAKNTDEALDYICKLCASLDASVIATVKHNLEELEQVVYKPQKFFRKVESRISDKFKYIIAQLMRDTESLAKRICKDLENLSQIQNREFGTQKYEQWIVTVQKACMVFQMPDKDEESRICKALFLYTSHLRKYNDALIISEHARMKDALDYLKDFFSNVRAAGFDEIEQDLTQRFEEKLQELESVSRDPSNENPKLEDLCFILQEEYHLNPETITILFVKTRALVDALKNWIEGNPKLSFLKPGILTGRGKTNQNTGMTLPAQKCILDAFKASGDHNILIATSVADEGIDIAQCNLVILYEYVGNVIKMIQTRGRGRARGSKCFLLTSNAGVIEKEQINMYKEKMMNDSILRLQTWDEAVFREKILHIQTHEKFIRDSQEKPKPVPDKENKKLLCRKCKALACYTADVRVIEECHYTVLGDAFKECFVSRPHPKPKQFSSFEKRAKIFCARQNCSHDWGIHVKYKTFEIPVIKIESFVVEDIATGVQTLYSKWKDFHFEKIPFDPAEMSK", "test": "IRF3-luciferase assay in HEK 293 cells transfected with RIGI", "type": "cell-based", "conditions": "100 or 500 nM; 8 h or 16 h incubation", "protocol": "HEK 293 cells were transfected with RIGI, pcDNA and IRF3-luciferase. The cells were then incubated with SB 44 (100 or 500 nM). Following 8 h or 16 h incubation, Luciferase activity was measured as described previously. The Luciferase assay results are presented as mean±S.D. from three independent experiments."}, "[5]": {"test": "Bioreversibility of SB 44 in serum", "type": "in vitro ADME", "excerpt": "Similar to the serum-mediated conversion of SB 44 to SB 40, in the case of microsomes liver esterases appear to be the major metabolizing enzymes involved in the hydrolytic conversion of SB 44 to SB 40. […] The facile bioconversion of SB 44 to SB 40 in liver and plasma is also consistent with broad substrate specificity of the ubiquitous esterase enzymes."}, "[6]": {"tested_on": "interferon-β (IFN-β)", "test": "IFN-β production from human lung epithelial A549 cells", "type": "cell-based"}, "[7]": {"test": "Dose range-finding oral toxicity study in rats (single dose and 7 days)", "type": "in vivo, Sprague-Dawley rats", "excerpt": "The objective of this study was to determine potential toxic effects, to identify potential target organs of toxicity, and to determine a maximum tolerated dose (MTD) and a no observable adverse effect level (NOAEL) for the endpoints examined following daily oral gavage of SB 44 for 7 consecutive days to adult male and female Sprague-Dawley rats. Information from this study was used to design subsequent toxicity studies and determine the suitability of the proposed human dose. This study consisted of Phase A and Phase B. Phase A was a dose range-finding study. Two rats (1 male and 1 female) were included in the study. Animals were given a single dose of SB 44 at 1000 mg/kg by oral gavage (po) and observed for 3 days. […] No necropsy was performed.\nIn Phase B, rats (3/sex/group) were given a daily oral dose of SB 44 at 50, 250, and 1000 mg/kg/day for 7 consecutive days. A control group (3/sex) was also given a daily oral dose of the vehicle, 50% PEG 400 plus 50% HPMCT (0.1% hydroxypropyl methylcellulose and 0.2% Tween 80 in sterile water), at an equivalent volume for 7 days. Animals were sacrificed on Day 8. The following parameters were evaluated: mortality/morbidity, clinical observations, body weights, clinical pathology (hematology and serum chemistry), organ weights, and, at necropsy, macroscopic observations and microscopic histopathology for liver tissues."}, "[8]": {"tested_on": "rat bone marrow erythrocytes", "test": "Bone-marrow micronucleus evaluation in rats", "type": "in vivo, Sprague-Dawley rats", "conditions": "14-day oral dosing", "method": "Necropsies were performed on Day 15 for rats in the main study group and on Day 28 for rats in the recovery group."}, "[9]": {"tested_on": "Madin-Darby bovine kidney (MDBK)", "test": "MTT cytotoxicity assay, MDBK cells", "type": "cell-based", "conditions": "24-hour incubation", "excerpt": "SDS was used as a positive cytotoxic control."}},
  "data": [
    {"smiles": "COC1C(OP(=O)(OCC2OC(n3cnc4c(N)ncnc43)CC2O)SCOC(=O)OC(C)C)C(CO)OC1n1ccc(=O)[nH]c1=O", "note": "(mixture of isomers) [SB 44]", "values": [
      {"measurement": "Mtb counts of lungs", "setting": "[1]", "result": "reducing Mtb counts of lungs better than either BCG or MDP+BCG"},
      {"measurement": "Mtb counts of spleens", "setting": "[1]", "result": "better than BCG vaccine in reducing Mtb counts of spleens"},
      {"measurement": "adjuvant efficacy with BCG vaccine against tuberculosis", "setting": "[1]", "result": "better than muramyl dipeptide (MDP) as adjuvants"},
      {"measurement": "anti-TB T cell function of mice", "setting": "[1]", "result": "dramatic increase in anti-TB T cell function of mice"},
      {"measurement": "memory precursor T cells (MPECs)", "setting": "[1]", "result": "induces better memory precursor T cells (MPECs) than BCG vaccine"},
      {"measurement": "tetramer specific CD8 T cells", "setting": "[1]", "result": "comparable levels of tetramer specific CD8 T cells"},
      {"measurement": "conversion of prodrug to SB 40", "setting": "[2]", "result": "stereospecific conversion of SB 44 to the dinucleotide SB 40"},
      {"measurement": "phase II conjugative reactions", "setting": "[2]", "result": "no apparent evidence of any phase II conjugative reactions"},
      {"measurement": "desulfurized product corresponding to SB 40", "setting": "[2]; LC/MS", "result": "< 5", "unit": "%"},
      {"measurement": "elevation of ALT", "setting": "[3]", "result": "about 2 fold"},
      {"measurement": "elevation of AST", "setting": "[3]", "result": "about 6 fold"},
      {"measurement": "tolerability", "setting": "[3]", "result": "clinically well tolerated"},
      {"measurement": "IRF3 induction following activation of RIG-I", "setting": "[4]", "result": "IRF3 induction following activation of RIG-I"},
      {"measurement": "conversion rates of the individual isomers", "setting": "[5]", "result": "almost equal rates"},
      {"measurement": "production of IFN-β", "setting": "[6]", "result": "induces production of interferon-β"},
      {"measurement": "NOAEL", "setting": "[7]; daily oral administration for 7 consecutive days", "result": "at least 1000 mg/kg/day"},
      {"measurement": "adverse effects", "setting": "[7]; daily oral gavage 50, 250, 1000 mg/kg/day for 7 days", "result": "no overt biologically or toxicologically significant adverse effects"},
      {"measurement": "clinical observation after single dose", "setting": "[7]; single dose 1000 mg/kg po, observed 3 days", "result": "appeared normal"},
      {"measurement": "induction of micronuclei", "setting": "[8]", "result": "not found to induce micronuclei"},
      {"measurement": "CC50", "setting": "[9]", "result": "> 1", "unit": "mM"}
    ]}
  ]
}
